Assay results reported in the NIST ThermoML archive (doi:10.1016/j.fluid.2011.01.007).

Key:
[1] = 298.15 K; 101.33 kPa; Liquid; Vibrating tube method
[2] = refractive index (Na D-line) (dimensionless); settings: 298.15 K; 101.33 kPa; Liquid; Standard Abbe refractometry
[3] = refractive index (Na D-line) (dimensionless); xn = mol fraction of the nth substance listed; settings: 298.15 K, 101 kPa, Liquid, Standard Abbe refractometry
[4] = xn = mol fraction of the nth substance listed; settings: 298.15 K, 101 kPa, Liquid, Vibrating tube method

c1ccccc1 [benzene]
Settings	mass density [kg/m3]	refractive index
[1]	873.57	–
[2]	–	1.49764

COC(=O)OC [dimethyl carbonate]
Settings	mass density [kg/m3]	refractive index
[1]	1063.04	–
[2]	–	1.36654

COC(=O)OC [dimethyl carbonate] + Cc1ccccc1
Settings	mass density, [4] [kg/m3]	refractive index, [3]
x1 = 0.0496	869.6	1.4883
x1 = 0.0998	877.39	1.4827
x1 = 0.2001	893.69	1.4715
x1 = 0.3003	910.85	1.4597
x1 = 0.3998	928.88	1.4475
x1 = 0.5002	948	1.4352
x1 = 0.5999	968.16	1.4224
x1 = 0.6999	989.62	1.4091
x1 = 0.7998	1012.35	1.3954
x1 = 0.8988	1036.61	1.3814
x1 = 0.9487	1049.29	1.3741

COC(=O)OC [dimethyl carbonate] + c1ccccc1
Settings	mass density, [4] [kg/m3]	refractive index, [3]
x1 = 0.0518	882.09	1.4902
x1 = 0.0988	889.99	1.4836
x1 = 0.1995	907.42	1.4699
x1 = 0.2994	925.15	1.4565
x1 = 0.401	943.6	1.4431
x1 = 0.5002	962.07	1.4301
x1 = 0.6003	981.15	1.417
x1 = 0.699	1000.51	1.4044
x1 = 0.7981	1020.48	1.3918
x1 = 0.9	1041.49	1.3789
x1 = 0.9497	1052	1.3727

CCO [ethanol]
Settings	mass density [kg/m3]	refractive index
[1]	785.33	–
[2]	–	1.35928

Cc1ccccc1 [toluene]
Settings	mass density [kg/m3]	refractive index
[1]	862.19	–
[2]	–	1.49397
